A value given as a limit tells only on which side of the number the result lay.

In general, CC50 refers to the concentration that lowers cell viability or growth by half. A low value points to harm at low concentration. The term EC50 denotes the concentration that produces a half-maximal response.

A short description of one data set: in vitro. It is filed as cell-based. The note with it: human, HepG2 or HepG2.117 cells, 3-days incubation (unmarked values), ATPlite; mean value. Summed up: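 Luminescent ATP quantitation served as the viability endpoint following a 3- or 4-day incubation with test compounds.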
(In general: In ATP-based viability assays light output follows the ATP content of the culture.)

The test system of data set [1] is HBV (HepG2.117 cell line, inducibly HBV producing). The data set is described as follows: Anti-HBV activity: intracellular HBV DNA by real-time PCR in HepG2.117 cells after 3 days of treatment. The note with it: Hepatitis B virus, HepG2.117, 72 h, HepG2.117 cells, 3 days of treatment, intracellular HBV DNA by real-time PCR; mean value; read-out: EC50 (μM, mean value). It is filed as cell-based, hepatitis B virus. In outline:
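First, HBV replication is induced in HepG2.117 cells by doxycycline absence. Next, serially diluted compound is added for 3 days. Finally, intracellular HBV DNA is quantified by HBV-specific real-time PCR.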
(In general: In qPCR the cycle at which signal appears reflects the starting amount.)

Turning to `C[C@@H]1Cc2c(nc(NCc3cscn3)n(-c3ccc(S(C)(=O)=O)cc3)c2=O)CN1C(=O)c1ccc(Cl)c(Cl)c1` [Compound C146, (6R)-7-(3,4-dichlorobenzoyl)-3-[4-(methanesulfonyl)phenyl]-6-methyl-2-{[(1,3-thiazol-4-yl)methyl]amino}-5,6,7,8-tetrahydropyrido[3,4-d]pyrimidin-4(3H)-one], the CC50 at 3 days in the data set “in vitro” was over 50 µM. For the same molecule, in data set [1], the EC50 stood at 1.95 µM.
On to `Cc1c(C(=O)N2CCc3c(nc(NC(C)C)n(-c4ccc(S(C)(=O)=O)cc4)c3=O)C2)[nH]c2ccccc12` [Compound C147, 3-[4-(methanesulfonyl)phenyl]-7-(3-methyl-1H-indole-2-carbonyl)-2-[(propan-2-yl)amino]-5,6,7,8-tetrahydropyrido[3,4-d]pyrimidin-4(3H)-one], for which the CC50 at 3 days in “in vitro” was over 50 µM. In data set [1], the EC50 was determined as 1.88 µM.
In turn, `COc1ccc(CNc2nc3c(c(=O)n2-c2cccc4ocnc24)CCN(C(=O)c2ccc(Cl)c(Cl)c2)C3)cc1` [Compound C148, 3-(1,3-benzoxazol-4-yl)-7-(3,4-dichlorobenzoyl)-2-{[(4-methoxyphenyl)methyl]amino}-5,6,7,8-tetrahydropyrido[3,4-d]pyrimidin-4(3H)-one] registered a CC50 at 3 days in the data set “in vitro” of over 38 µM. The EC50 in data set [1] turned out to be 1.48 µM.
In turn, `COc1ccc(CNc2nc3c(c(=O)n2-c2ccc(C(N)=O)cc2)CCN(C(=O)c2ccc(Cl)c(Cl)c2)C3)cc1` [Compound C149, 4-[7-(3,4-dichlorobenzoyl)-2-{[(4-methoxyphenyl)methyl]amino}-4-oxo-5,6,7,8-tetrahydropyrido[3,4-d]pyrimidin-3(4H)-yl]benzamide] showed a CC50 at 3 days in the data set “in vitro” of 23.2 µM. Moreover, in data set [1], the concentration giving a half-maximal response (EC50) was found to be 1.5 µM.
In turn, `C[C@@H]1Cc2c(nc(NCc3ccncn3)n(-c3ccc(S(C)(=O)=O)cc3)c2=O)CN1C(=O)c1ccc(Cl)c(Cl)c1` [Compound C150, (6R)-7-(3,4-dichlorobenzoyl)-3-[4-(methanesulfonyl)phenyl]-6-methyl-2-{[(pyrimidin-4-yl)methyl]amino}-5,6,7,8-tetrahydropyrido[3,4-d]pyrimidin-4(3H)-one] had a half-maximal cytotoxic concentration (CC50) at 3 days in “in vitro” of over 50 µM. Moreover, the EC50 in data set [1] was found to be 5.44 µM.
For `CC(C)Nc1nc2c(c(=O)n1-c1ccc(S(C)(=O)=O)cc1)CCN(C(=O)c1ccc3ncoc3c1)C2` [Compound C151, 7-(1,3-benzoxazole-6-carbonyl)-3-[4-(methanesulfonyl)phenyl]-2-[(propan-2-yl)amino]-5,6,7,8-tetrahydropyrido[3,4-d]pyrimidin-4(3H)-one], in “in vitro”, the CC50 at 3 days was over 50 µM. Moreover, the EC50 in data set [1] is 10.7 µM.
In the case of `CC(C)Nc1nc2c(c(=O)n1-c1ccc(S(C)(=O)=O)cc1)CCN(C(=O)c1cc3ccccc3o1)C2` [Compound C152, 7-(1-benzofuran-2-carbonyl)-3-[4-(methanesulfonyl)phenyl]-2-[(propan-2-yl)amino]-5,6,7,8-tetrahydropyrido[3,4-d]pyrimidin-4(3H)-one], the CC50 at 3 days in the data set “in vitro” is over 50 µM. The concentration for a half-maximal effect (EC50) in data set [1] came out at 30.8 µM.
Molecule `CCOC(=O)c1ccc(-n2c(NC(C)C)nc3c(c2=O)C[C@@H](C)N(C(=O)c2ccc(Cl)c(Cl)c2)C3)cc1` [Compound C153, ethyl 4-[(6R)-7-(3,4-dichlorobenzoyl)-6-methyl-4-oxo-2-[(propan-2-yl)amino]-5,6,7,8-tetrahydropyrido[3,4-d]pyrimidin-3(4H)-yl]benzoate] had a 50% cytotoxic concentration (CC50) at 3 days in “in vitro” of over 50 µM. Besides, in data set [1], the half-maximal effective concentration (EC50) was 0.75 µM.
Molecule `CC(C)Nc1nc2c(c(=O)n1-c1ccc(S(C)(=O)=O)cc1)C(C)CN(C(=O)c1ccc(Cl)c(Cl)c1)C2` (centres unmarked) [Compound C154, 7-(3,4-dichlorobenzoyl)-3-[4-(methanesulfonyl)phenyl]-5-methyl-2-[(propan-2-yl)amino]-5,6,7,8-tetrahydropyrido[3,4-d]pyrimidin-4(3H)-one] showed a CC50 at 3 days in the data set “in vitro” of over 50 µM. Further, the EC50 in data set [1] was determined as 0.52 µM.
In the data set “in vitro”, `CC(C)Nc1nc2c(c(=O)n1-c1ccc(S(C)(=O)=O)cc1)CCN(C(=O)c1ccc3c(c1)CCO3)C2` [Compound C155, 7-(2,3-dihydro-1-benzofuran-5-carbonyl)-3-[4-(methanesulfonyl)phenyl]-2-[(propan-2-yl)amino]-5,6,7,8-tetrahydropyrido[3,4-d]pyrimidin-4(3H)-one] had a CC50 at 3 days of over 50 µM. The EC50 in data set [1] was determined as 5.29 µM.
For the molecule `CNC(=O)c1ccc(-n2c(NC(C)C)nc3c(c2=O)C[C@@H](C)N(C(=O)c2ccc(Cl)c(Cl)c2)C3)cc1` [Compound C157, 4-[(6R)-7-(3,4-dichlorobenzoyl)-6-methyl-4-oxo-2-[(propan-2-yl)amino]-5,6,7,8-tetrahydropyrido[3,4-d]pyrimidin-3(4H)-yl]-N-methylbenzamide], in the data set “in vitro”, the CC50 at 3 days was over 50 µM. In addition, the EC50 in data set [1] came out at 0.04 µM.
Turning to `CCC1Cc2c(nc(NC(C)C)n(-c3ccc(S(C)(=O)=O)cc3)c2=O)CN1C(=O)c1ccc(Cl)c(Cl)c1` (centres unmarked) [Compound C158, 7-(3,4-dichlorobenzoyl)-6-ethyl-3-[4-(methanesulfonyl)phenyl]-2-[(propan-2-yl)amino]-5,6,7,8-tetrahydropyrido[3,4-d]pyrimidin-4(3H)-one], the CC50 at 3 days in “in vitro” was over 50 µM. Besides, in data set [1], the EC50 stood at 1.14 µM.
In turn, `COc1ccc(CNc2nc3c(c(=O)n2-c2ccc(N4CCOCC4C(=O)O)cc2)CCN(C(=O)c2ccc(Cl)c(Cl)c2)C3)cc1` (centres unmarked) [Compound C159, 4-{4-[7-(3,4-dichlorobenzoyl)-2-{[(4-methoxyphenyl)methyl]amino}-4-oxo-5,6,7,8-tetrahydropyrido[3,4-d]pyrimidin-3(4H)-yl]phenyl}morpholine-3-carboxylic acid] returned a CC50 at 3 days in the data set “in vitro” of over 50 µM. In data set [1], the EC50 stood at 23.1 µM.
For the molecule `COc1ccc(CNc2nc3c(c(=O)n2-c2ccc(-c4ncco4)cc2)CCN(C(=O)c2ccc(Cl)c(Cl)c2)C3)cc1` [Compound C160, 7-(3,4-dichlorobenzoyl)-2-{[(4-methoxyphenyl)methyl]amino}-3-[4-(1,3-oxazol-2-yl)phenyl]-5,6,7,8-tetrahydropyrido[3,4-d]pyrimidin-4(3H)-one], the CC50 at 3 days in “in vitro” is over 50 µM. Further, the EC50 in data set [1] amounted to 0.54 µM.
On the same counts, the results for `COc1ccc(CNc2nc3c(c(=O)n2-c2ccc(N4CCC(NC(=O)OC(C)(C)C)C4)cc2)CCN(C(=O)c2ccc(Cl)c(Cl)c2)C3)cc1` (centres unmarked) [Compound C161, tert-butyl (1-{4-[7-(3,4-dichlorobenzoyl)-2-{[(4-methoxyphenyl)methyl]amino}-4-oxo-5,6,7,8-tetrahydropyrido[3,4-d]pyrimidin-3(4H)-yl]phenyl}pyrrolidin-3-yl)carbamate] are over 50 µM and 2.4 µM.
In “in vitro”, `CC(C)Nc1nc2c(c(=O)n1-c1ccc(-c3ncco3)cc1)CCN(C(=O)c1ccc(Cl)c(Cl)c1)C2` [Compound C162, 7-(3,4-dichlorobenzoyl)-3-[4-(1,3-oxazol-2-yl)phenyl]-2-[(propan-2-yl)amino]-5,6,7,8-tetrahydropyrido[3,4-d]pyrimidin-4(3H)-one] had a CC50 at 3 days of over 50 µM. Further, in data set [1], the EC50 stood at 0.47 µM.
`CC(C)Nc1nc2c(c(=O)n1-c1ccc(S(C)(=O)=O)cc1)CCN(C(=O)c1nc3ccc(Cl)cc3[nH]1)C2` [Compound C163, 7-(6-chloro-1H-benzimidazole-2-carbonyl)-3-[4-(methanesulfonyl)phenyl]-2-[(propan-2-yl)amino]-5,6,7,8-tetrahydropyrido[3,4-d]pyrimidin-4(3H)-one] came in with a CC50 at 3 days in the data set “in vitro” of over 50 µM. For the same molecule, in data set [1], the EC50 turned out to be 4.45 µM.
As to `CC(C)Nc1nc2c(c(=O)n1-c1ccc(S(C)(=O)=O)cc1)CCN(C(=O)c1ccc3sccc3c1)C2` [Compound C164, 7-(1-benzothiophene-5-carbonyl)-3-[4-(methanesulfonyl)phenyl]-2-[(propan-2-yl)amino]-5,6,7,8-tetrahydropyrido[3,4-d]pyrimidin-4(3H)-one], the CC50 at 3 days in “in vitro” was over 50 µM. Besides, the 50% effective concentration (EC50) in data set [1] was 0.24 µM.
In “in vitro”, `CC(C)Nc1nc2c(c(=O)n1-c1ccc(S(C)(=O)=O)cc1)CCN(C(=O)c1cc3cc(F)c(F)cc3[nH]1)C2` [Compound C165, 7-(5,6-difluoro-1H-indole-2-carbonyl)-3-[4-(methanesulfonyl)phenyl]-2-[(propan-2-yl)amino]-5,6,7,8-tetrahydropyrido[3,4-d]pyrimidin-4(3H)-one] had a CC50 at 3 days of over 50 µM. Besides, in data set [1], the EC50 worked out at 0.05 µM.
For `CC(C)Nc1nc2c(c(=O)n1-c1ccc(-n3cccn3)cc1)C[C@@H](C)N(C(=O)c1ccc(Cl)c(Cl)c1)C2` [Compound C166, (6R)-7-(3,4-dichlorobenzoyl)-6-methyl-2-[(propan-2-yl)amino]-3-[4-(1H-pyrazol-1-yl)phenyl]-5,6,7,8-tetrahydropyrido[3,4-d]pyrimidin-4(3H)-one] the same measures were over 50 µM and 0.11 µM.
For `CC(C)Nc1nc2c(c(=O)n1-c1ccc(C(=O)NC3CC3)cc1)C[C@@H](C)N(C(=O)c1ccc(Cl)c(Cl)c1)C2` [Compound C167, N-cyclopropyl-4-[(6R)-7-(3,4-dichlorobenzoyl)-6-methyl-4-oxo-2-[(propan-2-yl)amino]-5,6,7,8-tetrahydropyrido[3,4-d]pyrimidin-3(4H)-yl]benzamide], the CC50 at 3 days in “in vitro” is over 50 µM. In data set [1], the EC50 was determined as 0.06 µM.
`CC(C)Nc1nc2c(c(=O)n1-c1ccc(C(=O)N3CCOCC3)cc1)C[C@@H](C)N(C(=O)c1ccc(Cl)c(Cl)c1)C2` [Compound C168, (6R)-7-(3,4-dichlorobenzoyl)-6-methyl-3-[4-(morpholine-4-carbonyl)phenyl]-2-[(propan-2-yl)amino]-5,6,7,8-tetrahydropyrido[3,4-d]pyrimidin-4(3H)-one] had a CC50 at 3 days in the data set “in vitro” of over 50 µM. Also, the EC50 in data set [1] amounted to 0.24 µM.

(Values after patent US20230091047A1 (priority 2019, published 2023).)
